Test results reported in publication PMC3846562, “Retro-Inverso Carbohydrate Mimetic Peptides with Annexin1-Binding Selectivity, Are Stable In Vivo, and Target Tumor Vasculature” (PLoS ONE, 2013).
Where a SMILES comes first, the peptide text is derived from it. [ ]: non-standard residue; d: D form. The star is where a group is joined. 5TAMRA = CN(C)c1ccc2c(c1)Oc1cc(N(C)C)ccc1C21OC(=O)c2cc(C(=O)*)ccc21

Experiments:
tumor = conditions: mice; cited from earlier work
Source text: Hatakeyama's laboratory used peptide-displaying phage technology to generate a carbohydrate mimetic peptide with the consensus sequence IFLLWQR, which was designated IF7 [14]. IF7 has a special affinity for the tumor vasculature and functions as an efficient anticancer drug delivery vehicle, slowing tumor growth. Experiments confirmed that IF7 specifically binds to a 15-kDa fragment of annexin1 (Anxa1). Anxa1 is a member of the large annexin family of cytosolic proteins with calcium-dependent associations with cell membranes.

Anxa1 [1] = molecular target: T1, Anxa1 (Mus musculus, UniProt P10107); assay: In vivo inhibition assay with anti-Anxa1 antibody in pulmonary tumor-bearing mice; conditions: 20 µg rabbit IgG 15 min prior to peptide
T1 construct: IF7 or RIF7 targets tumors through Anxa1 expressed on endothelial cell surfaces; from tissue; host or cells: pulmonary tumour vasculature of tumour-bearing mice (in vivo)
T1 sequence (P10107 1-346): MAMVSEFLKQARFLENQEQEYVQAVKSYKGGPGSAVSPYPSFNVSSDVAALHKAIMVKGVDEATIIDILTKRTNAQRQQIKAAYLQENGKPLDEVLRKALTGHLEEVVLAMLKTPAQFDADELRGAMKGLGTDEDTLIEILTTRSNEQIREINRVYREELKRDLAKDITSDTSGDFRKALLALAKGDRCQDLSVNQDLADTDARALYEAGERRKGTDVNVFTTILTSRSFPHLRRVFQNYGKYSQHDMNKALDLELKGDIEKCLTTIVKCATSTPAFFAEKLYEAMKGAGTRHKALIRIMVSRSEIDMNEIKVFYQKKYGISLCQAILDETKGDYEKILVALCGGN
Procedure: (§1) Ex vivo real-time fluorescence imaging analysis was used to evaluate the tumor targeting activity of TMR-RIF7. One week after inoculation, TMR-IF7 or TMR-RIF7 (200 µl, 0.5 mg/ml in 5% glucose solution) was injected through the tail vein of mice bearing pulmonary tumors. The mice were then sacrificed and perfused intracardially with normal saline to compare tissue and tumor distribution of TMR-RIF7. Tumor-bearing lungs and other major organs, including hearts, livers, spleens and kidneys were removed, washed with saline, and imaged using a Cambridge Research & Instrumentation (CRi) in vivo imaging system (CRi, MA, USA). When subcutaneous KBv tumors were grown to a palpable size (about 8–10 mm diameter), the same process was carried out to evaluate tissue and tumor distribution of TMR-RIF7 in subcutaneous tumor-bearing nude mice. Next, 20 µg of each rabbit anti-Anxa1 antibody (N-19) or rabbit IgG antibody was injected 15 min prior to TMR-IF7 or TMR-RIF7 injection for inhibition assays in pulmonary tumor-bearing mice. Then, resulting images (spectral cube, containing a spectrum at every pixel) were loaded into Maestro™ 2.10 software and analyzed.

[2] = Systemic distribution in dissected organs, ex vivo imaging; parameters: species or system mouse; conditions: for organ distribution of TMR-labeled peptide: major organs collected at 30 min and 4 h after i.v. injection
Procedure: as §1

lung melanoma (B16-F10) = format: in vivo, mouse
Procedure: as §1, with “B16-F10 cells (7.5×10^5 cells suspended in 250 µl PBS) were injected intravenously into BALB/c mice to establish a pulmonary metastatic melanoma model. Specifically, KBv cells (5×10^6cells suspended in […] cell culture medium) were inoculated subcutaneously into the right hind legs of nude mice to produce a subcutaneous KBv xenograft model. Ex” for “Ex”

Anxa1 [3] = molecular target: T2, Anxa1 (Homo sapiens, UniProt P04083); assay: Direct competition study with non-labeled peptide; format: cell-based; conditions: A549 cells
T2 construct: endogenous in cells; host or cells: A549 cells
T2 sequence (P04083 1-346): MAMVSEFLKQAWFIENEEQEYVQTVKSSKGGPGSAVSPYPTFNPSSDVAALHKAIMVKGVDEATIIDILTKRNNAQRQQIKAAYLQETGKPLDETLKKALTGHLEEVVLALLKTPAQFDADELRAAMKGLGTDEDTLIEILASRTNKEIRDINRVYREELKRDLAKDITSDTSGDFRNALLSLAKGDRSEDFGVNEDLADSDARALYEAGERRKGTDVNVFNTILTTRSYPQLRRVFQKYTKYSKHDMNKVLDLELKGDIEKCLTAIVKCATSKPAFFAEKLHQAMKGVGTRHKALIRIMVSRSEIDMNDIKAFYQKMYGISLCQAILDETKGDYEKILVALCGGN
Procedure: (§2) For direct competition studies, non-labeled IF7 or RIF7 (10 µg/ml) was added to each well and incubated for 30 min. TMR-IF7 or TMR-RIF7 (10 µg/ml) were then added and incubated at 37°C for 30 min. The solution was removed and the cells were washed three times with ice-cold PBS (pH 7.4) and then visualized under a fluorescent microscope (Leica DMI 4000B, Germany). The fluorescent signal intensity of each well was quantified using an F-7000 FL spectrophotometer.

A549 cells = assay: Cell binding after pre-incubation in complete medium (10% FBS); format: cell-based, human; conditions: 10 min; for fluorescent intensity after incubation of peptide with complete medium prior to cells: complete medium containing 10% FBS, 37°C, then A549 cells, IF7 p<0.001, RIF7 p<0.01
Procedure: A549 cells were seeded (5×10^3 cells/well) in 96-well plates (Corning Coaster, Tokyo, Japan) and incubated for 12 h. Cells were incubated with serum free medium (special Dulbecco's modified Eagle medium supplemented with 100 U/mL penicillin, […] streptomycin) containing TMR-RIF7, TMR-IF7, or TMR-RQ7 (TMR conjugated to reverse IF7: sequence RQWLLFI, composed of L-amino acids) at the concentration of 10 µg/ml. In addition, to verify the stability of modified peptides, TMR-IF7 and TMR-RIF7 were incubated with complete medium (special Dulbecco's modified Eagle medium supplemented with 10% heat-inactivated FBS, 100 U/mL penicillin, […] streptomycin) for 10 min at 37°C in advance of serum free medium. The solution was removed and cells were washed three times with ice-cold PBS (pH 7.4) and then visualized under a fluorescent microscope (Leica DMI 4000B, Germany).
as §2

Anxa1 [4] = molecular target: T2, Anxa1; assay: Inhibition assay of cell binding with anti-Anxa1 antibody; format: cell-based; conditions: A549 cells; for influence of normal rabbit IgG on binding capacity to cells: normal rabbit IgG 4 µg per well 30 min prior to peptide
Procedure: For inhibition assays, anti-Anxa1 antibody or control normal rabbit IgG (4 µg each) was added to each well and incubated for 30 min. TMR-IF7 or TMR-RIF7 (10 µg/ml) were then added and incubated at 37°C for 30 min. The solution was removed and cells were washed three times with ice-cold PBS (pH 7.4) and then visualized under a fluorescent microscope (Leica DMI 4000B, Germany).
as §2

[5] = tested on: subcutaneous KBv xenografts; assay: Ex vivo fluorescence imaging, subcutaneous KBv xenograft model; format: in vivo; conditions: nude mice, both 30 min and 4 h after i.v. injection
Procedure: as §1, with “B16-F10 cells (7.5×10^5 cells suspended in 250 µl PBS) were injected intravenously into BALB/c mice to establish a pulmonary metastatic melanoma model. Specifically, KBv cells (5×10^6cells suspended in […] cell culture medium) were inoculated subcutaneously into the right hind legs of nude mice to produce a subcutaneous KBv xenograft model. Ex” for “Ex”, “Next, 20 µg of each rabbit anti-Anxa1 antibody (N-19) or rabbit IgG antibody was injected 15 min prior to TMR-IF7 or TMR-RIF7 injection for inhibition assays in pulmonary tumor-bearing mice.” left out

[6] = Stability of TMR-labeled peptides in mouse plasma; format: in vitro ADME; conditions: 37°C; for susceptibility to mouse plasma proteases (in words): incubated with fresh mouse plasma, HPLC
Procedure: Mouse blood was collected in serum-separation tubes containing heparin sodium and immediately centrifuged at 10,000 rpm for 10 min. Fresh mouse plasma was then removed and stored for further analysis. Then, 200 µg of TMR-RIF7 and TMR-IF7 was dissolved in 10 µl DMSO, added to 1 ml of the fresh plasma, and incubated at 37°C. A 50 µl aliquot was withdrawn from the incubation mixture at the time indicated, added to 450 µl acetonitrile: water (50∶50) containing 0.1% TFA, centrifuged at 5,000 rpm for 10 min to remove Insoluble material, and then the supernatant was analyzed by HPLC as described previously in §2.2. Elution was monitored (excitation λ = 543 nm; emission λ = 570 nm). The relative amount of TMR-RIF7 and TMR-IF7 that remained in the mouse plasma […].

[7] = TMR-labeled peptide 10 µg/ml, 37°C, 30 min, F-7000 FL spectrophotometer, mean ± SD, n = 3

IFLLWQR [IF7, parent peptide]
time for which the tumor signal remained high (tumor): 40 min
time to detection in the tumor after injection (tumor): ≤ 1 min
time to plateau in the tumor (tumor): 9 min
effect of normal rabbit IgG injected prior to peptide (Anxa1 [1]): did not alter targeted distribution in the lung
organ distribution of TMR-labeled peptide [2]: distributed mainly in liver, kidney and tumor tissue
mean fluorescent intensity in the lung tumor region (lung melanoma (B16-F10); 12 h post intravenous injection, mean ± SD, n = 3): hardly detectable
fluorescent intensity, cells treated with peptide only (competition assay) (Anxa1 [3]; [7]): 20.31±1.78
fluorescent intensity, cells pre-incubated with non-labeled competitor (Anxa1 [3]; non-labeled peptide 10 µg/ml 30 min, then TMR-labeled peptide 10 µg/ml, 37°C, 30 min, mean ± SD, n = 3): 4.26±1.96
fluorescent intensity after incubation of peptide with complete medium prior to cells (A549 cells): decreased significantly
intensity of fluorescence, cells treated with peptide only (Anxa1 [4]; [7]): 19.32±0.89
intensity of fluorescence, cells incubated with anti-Anxa1 antibody prior to peptide (Anxa1 [4]; anti-Anxa1 antibody 4 µg per well 30 min, then TMR-labeled peptide 10 µg/ml, 37°C, 30 min, mean ± SD, n = 3): 5.26±1.97
influence of normal rabbit IgG on binding capacity to cells (Anxa1 [4]): little influence

RQWLLFI [RIF7]
fluorescent intensity in KBv tumors compared to IF7-treated mice [5]: greater fluorescent intensity
effect of normal rabbit IgG injected prior to peptide (Anxa1 [1]): did not alter targeted distribution in the lung
fluorescent signals in organs compared with the other peptide ([2]; 30 min and 4 h after i.v. injection): stronger fluorescent signals at both time points
organ distribution of TMR-labeled peptide [2]: distributed mainly in liver, kidney and tumor tissue
signal intensity in lung tumor relative to IF7 (lung melanoma (B16-F10); after 4 h, mean fluorescent intensities in lung tumor region, n = 3): ~2.3 fold
fluorescent signal in lung melanoma compared with the IF7 group (lung melanoma (B16-F10); all survey points (30 min, 4, 8, 12 h)): stronger fluorescent signal
binding to Anxa1 inhibited by non-labeled peptide (Anxa1 [3]; non-labeled peptide 10 µg/ml 30 min prior to TMR-labeled peptide 10 µg/ml): ~67%
fluorescent intensity after incubation of peptide with complete medium prior to cells (A549 cells): decreased significantly
binding to Anxa1 inhibited by anti-Anxa1 antibody (Anxa1 [4]; anti-Anxa1 antibody 4 µg per well 30 min prior to TMR-labeled peptide 10 µg/ml): ~70%
influence of normal rabbit IgG on binding capacity to cells (Anxa1 [4]): little influence

CC[C@@H](C)[C@@H](NC(=O)[C@@H](Cc1ccccc1)NC(=O)[C@@H](CC(C)C)NC(=O)[C@@H](CC(C)C)NC(=O)[C@@H](Cc1c[nH]c2ccccc12)NC(=O)[C@@H](CCC(N)=O)NC(=O)[C@@H](CCCNC(=N)N)NC(=O)c1ccc2c(c1)C(=O)OC21c2ccc(N(C)C)cc2Oc2cc(N(C)C)ccc21)C(=O)O [TMR-RIF7] (5TAMRA-[dR][dQ][dW][dL][dL][dF][dI]-OH)
remaining at 6 h, 198 µg/mL ([6]; fresh heparinised mouse plasma, fresh heparin mouse plasma, 200 µg peptide in 10 µl DMSO per 1 ml plasma, within 6 h, HPLC with fluorescence detection (ex 543 nm, em 570 nm), mean of at least three experiments, read-out: peptide remaining intact in mouse plasma): ~70%
susceptibility to mouse plasma proteases (in words) [6]: did not change significantly
resistance to protease in complete medium (qualitative imaging) (A549 cells; complete medium with 10% FBS, 37°C prior to incubation with A549 cells): more resistant to protease in complete medium than TMR-IF7

CC[C@H](C)[C@H](NC(=O)c1ccc2c(c1)C(=O)OC21c2ccc(N(C)C)cc2Oc2cc(N(C)C)ccc21)C(=O)N[C@@H](Cc1ccccc1)C(=O)N[C@@H](CC(C)C)C(=O)N[C@@H](CC(C)C)C(=O)N[C@@H](Cc1c[nH]c2ccccc12)C(=O)N[C@@H](CCC(N)=O)C(=O)N[C@@H](CCCNC(=N)N)C(=O)O [TMR-IF7] (5TAMRA-IFLLWQR-OH)
metabolised at 0.5 h, 198 µg/mL ([6]; fresh heparinised mouse plasma, fresh heparin mouse plasma, 200 µg peptide in 10 µl DMSO per 1 ml plasma, within 30 min, HPLC with fluorescence detection (ex 543 nm, em 570 nm), mean of at least three experiments, read-out: peptide degraded in mouse plasma): > 80%
susceptibility to mouse plasma proteases (in words) [6]: rapidly degraded

RQWLLFI [RQ7, control peptide]
signals in the lung ([2]; different time points after i.v. injection, control peptide): remained at background levels
